Test results reported in PubChem BioAssay (NCI).
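Assay format: 96-well plates, 48-hour exposure. TGI: concentration producing complete growth inhibition.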

How the values were obtained:
Test in all cases: inhibition of tumour cell growth, NCI panel, 48 h
[1] = system: SW-620 colon
[2] = system: SK-MEL-2 melanoma
[3] = system: 786-0 renal
[4] = system: SK-MEL-28 melanoma
[5] = system: SNB-19 CNS
[6] = system: HCC-2998 colon
[7] = system: OVCAR-8 ovarian
[8] = system: SK-OV-3 ovarian
[9] = system: HT29 colon
[10] = system: EKVX NSCLC

| Structure (SMILES) | TGI [1] | TGI [2] | TGI [3] | TGI [4] | TGI [5] | TGI [6] | TGI [7] | TGI [8] | TGI [9] | TGI [10] |
| --- | --- | --- | --- | --- | --- | --- | --- | --- | --- | --- |
| Cc1oc2c(C)c3oc(=O)cc(C)c3cc2c1CN | > 100 µM | > 100 µM | > 100 µM | > 100 µM | > 100 µM | 64.7 µM | > 100 µM | 79.2 µM | > 100 µM | > 100 µM |
| COC1=CCC2=C(CCN(C(=O)C3CCC3)C2Cc2ccc(OC)c(O)c2)C1 (stereo not given) | > 100 µM | > 100 µM | 47.4 µM | > 100 µM | > 100 µM | 41.3 µM | > 100 µM | 83.5 µM | 43.8 µM | 88.9 µM |
| COc1cc(C2c3cc4c(cc3OC(N3CCOCC3)C2C)OCO4)cc(OC)c1OC(C)=O (stereo not given) | > 100 µM | 41.1 µM | > 100 µM | > 91.6 µM | > 46.4 µM | 50.5 µM | > 100 µM | > 100 µM | 57.9 µM | > 100 µM |
| C=C(COC(=O)C(C)C)[C@H]1Oc2ccc(C(C)=O)cc2[C@@H]1OC(=O)C(C)C | > 100 µM | > 100 µM | > 100 µM | > 100 µM | > 100 µM | > 100 µM | > 100 µM | > 100 µM | > 100 µM | > 100 µM |
| O=C(O)C(CO)NC(=O)C1C(C(=O)O)C(c2ccccc2[N+](=O)[O-])C=C(c2ccco2)N1c1ccncc1 (stereo not given) | 3.79 µM | 31 µM | 6.01 µM | 22.5 µM | 24.5 µM | 9.13 µM | 31 µM | 29.4 µM | 3.66 µM | 32.7 µM |
| O=C1C(CN2CCCC2)CCCC1CN1CCCC1 (stereo not given) | 0.32 µM | 37.4 µM | 2.42 µM | 8.94 µM | > 100 µM | 34.3 µM | 10.5 µM | 31.9 µM | 33.6 µM | 13.7 µM |
| O=C1CC(Cl)c2c(Cl)sc(Cl)c21 (stereo not given) | 3.61 µM | > 25.5 µM | 2.82 µM | 4.58 µM | 24 µM | 5.54 µM | 3.32 µM | 33.3 µM | 5.93 µM | 16.4 µM |
| Cc1ccc(CC(=O)Nc2ccc(NC(=O)CNC(=O)/C=C/c3ccc(-c4ccccc4)cc3)cc2C(=O)c2ccccc2)cc1 | 19.5 µM | 35.3 µM | 5.48 µM | 66.6 µM | 20.3 µM | 4.98 µM | 3.27 µM | 27.4 µM | 2.99 µM | 15.8 µM |
| Cc1ccnc2sc3ccccc3c(=O)c12 | > 100 µM | > 100 µM | > 100 µM | > 100 µM | > 100 µM | > 100 µM | > 100 µM | > 100 µM | 93.3 µM | 94.4 µM |
| Cc1nn(C(=O)c2ccc(Cl)cc2)c2c1C(c1ccco1)SC(N)=N2 (stereo not given) | > 10 µM | > 10 µM | > 10 µM | > 10 µM | > 10 µM | > 10 µM | > 10 µM | > 10 µM | > 10 µM | > 10 µM |
| O=C(CC(=O)Nc1ccccc1Cl)NNC(Sc1ccccc1)c1cc(N=Nc2ccc(Br)cc2)ccc1O (stereo not given) | 2.77 µM | > 10 µM | 2.42 µM | > 10 µM | > 10 µM | > 10 µM | 2.39 µM | > 10 µM | > 10 µM | > 10 µM |
| CC1CN=C(N(C)C(=O)Nc2ccc(Cl)c(Cl)c2)S1 (stereo not given) | > 100 µM | 44.2 µM | > 100 µM | 37.9 µM | > 100 µM | > 100 µM | > 100 µM | > 100 µM | > 100 µM | > 100 µM |
| Cc1nc(N)nc(N)c1N1CCN(Cc2ccccc2)CC1 | > 100 µM | > 100 µM | > 100 µM | > 100 µM | > 100 µM | > 100 µM | > 100 µM | > 100 µM | > 100 µM | > 100 µM |
| CSc1nc(=O)c(C#N)c(-c2ccccc2)n1C1OC(COC(C)=O)C(OC(C)=O)C(OC(C)=O)C1OC(C)=O (stereo not given) | > 100 µM | > 100 µM | > 100 µM | > 100 µM | > 100 µM | > 100 µM | > 100 µM | > 100 µM | > 100 µM | > 100 µM |
| c1cn[nH]c1 | > 10 µM | > 10 µM | > 10 µM | > 10 µM | > 10 µM | > 10 µM | > 10 µM | > 10 µM | > 10 µM | > 10 µM |
| CCOC(=O)/C=C(/C(=O)OCC)n1ccc(=O)[nH]c1=O | 3.99 µM | 30.4 µM | 11.3 µM | 18.4 µM | 29.8 µM | 32.3 µM | 27.4 µM | 32.9 µM | 36 µM | 23 µM |
| O=C(CCC(=O)OCC1OC(O)(CC2OC(CO)C(O)C(O)C2O)C(O)C1O)OCc1ccccc1 (stereo not given) | > 100 µM | > 100 µM | > 100 µM | > 100 µM | > 100 µM | > 100 µM | > 100 µM | > 100 µM | > 100 µM | > 100 µM |
